Common to all, as to assay type: in vivo, mouse
Assay [1] relates to ChAT-positive motor neurons (AHNs). The assay can be described thus: Immunofluorescence of ChAT and GFAP in anterior horn of spinal cord. As to conditions: 4-PBA treated hexb−/− mice. From the text:
(§1) Protocol Two: Two groups of hexb^−/− mice at 40 d of age (n=4 per group) were set. […] Mice were perfused at 80 d, with formalin and processed for immunocytochemistry. Spine sections from treated and untreated mice were immunolabelled with multiple antibodies and evaluated.
(§2) Spinal cords from hexb^+/+ and hexb^−/− mice were harvested at 40, 60, 80, 100, and 120 d and embedded in paraffin as described above. Samples were rehydrated, first by washing slides with xylene then by washing them with a 1:1 solution of xylene and ethanol (EtOH) followed by washes in 100% EtOH, 95% EtOH, 70% EtOH, 70% EtOH/1% lithium carbonate solution, 70% EtOH, and finally, 50% EtOH. Next, antigen retrieval in a sodium citrate buffer (pH 6) was performed by microwaving the slides at 1 min intervals until boiling and then maintaining a boil for 5 minutes. The slides were then washed with tap water followed by a wash in glycine. Following, the slides were then incubated with bloxall blocking solution for 10 minutes, followed by a 5 minute wash with PBS. Slides were then blocked with 2.5% horse serum for 20 minutes. Samples were then double labelled with a combination of anti-GFAP (1:100, Sigma; G9269), anti-ChAT (1:200, SIGMA), anti-Calretinin (1:200, Proteintech) and anti-NeuN (1:100, novus biologicals; N.BP1-92693). Slides were incubated with antibodies overnight at 4° C. Samples were washed with 1×PBS+0.05% TWEEN20 for 3×5 minutes, prior to application of the secondary antibody. Following, slides were double labeled with appropriate Alexa Fluor secondaries (Invitrogen, goat anti-rabbit 488: A11037, goat anti-mouse 594: A11029) and then again washed with 1×PBS+0.05% TWEEN20. Finally, the slides were mounted with ProLong Diamond antifade mountant reagent with DAPI (Invitrogen: P36966). Samples were imaged using Ziess Axiovert 200 scope equipped with an HBO 100 mercury lamp.
One of the hall marks of motor neurons within the spinal cord is the enzyme choline acetyltransferase (ChAT). […]

The nature of assay [2]: Body mass of hexb−/− mice. To be noted: hexb−/− mice with 4-PBA compared to wildtype. The procedure: (§3) Protocol one: Two groups of hexb^−/− mice (n=10 per group); One group was administered 4-PBA (Scandinavian Formulas, Inc.) 4 mg/ml (0.4% w/v) in drinking water at 40 d of age. Body weights and vitals were monitored, and motor neuromuscular function were assessed every other day starting at 50 d of age until end point.
(§4) To assess the efficacy of chemical chaperone 4-PBA in reducing ER stress, hexb^−/− mice were administered 4-PBA in their drinking water at 40 d of age and underwent behavioral testing beginning at 7 weeks of age. Utilizing several behavioral tests such as wire hang, body weight, and righting response, measures of degeneration of cerebellar and motor neuromuscular functions were collected (FIG. 14). […] Lastly, an analysis of survivability was conducted using a Mantel-Cox test (FIG. 14 D). […] Overall, an increase of 16 days was noted, with 127 days as the median survival age for untreated hexb^−/− mice and 143 days for 4-PBA treated hexb^−/− mice.

Another assay has as its system ATF6. The assay can be described thus: ATF6 expression after 4-PBA treatment.
Assay [3] deals with hexb^−/− mice. The assay can be described thus: Righting reflex / righting response in hexb−/− mice. The procedure:
as §3, §4

The test system of assay [4] is Calretinin-positive interneurons. The assay can be described thus: Immunofluorescence of Calretinin in spinal cord sections. As to conditions: 4-PBA treated hexb−/− mice.
From the text: as §1
as §2, with “Samples were washed with 1×PBS+0.05% TWEEN20 for 3×5 minutes, prior to application of the secondary antibody. Following, slides were double labeled with appropriate Alexa Fluor secondaries (Invitrogen, goat anti-rabbit 488: A11037, goat anti-mouse 594: A11029) and then again washed with 1×PBS+0.05% TWEEN20. Finally, the slides were mounted with ProLong Diamond antifade mountant reagent with DAPI (Invitrogen: P36966). Samples were imaged using Ziess Axiovert 200 scope equipped with an HBO 100 mercury lamp.” left out

The subject of a further assay is cleaved caspase 7. The assay can be described thus: Immunofluorescence of cleaved caspase 7 and NeuN in spinal cord. To be noted: after 4-PBA treatment vs untreated.
From the text: as §1
(§5) Spinal cords from hexb^+/+ and hexb^−/− mice were harvested at 40, 60, 80, 100, and 120 d and embedded in paraffin as described above. Samples were rehydrated, first by washing slides with xylene then by washing them with a 1:1 solution of xylene and ethanol (EtOH) followed by washes in 100% EtOH, 95% EtOH, 70% EtOH, 70% EtOH/1% lithium carbonate solution, 70% EtOH, and finally, 50% EtOH. Next, antigen retrieval in a sodium citrate buffer (pH 6) was performed by microwaving the slides at 1 min intervals until boiling and then maintaining a boil for 5 minutes. The slides were then washed with tap water followed by a wash in glycine. […]
(§6) UPR activation was assessed through immunofluorescent staining of phosphorylated eukaryotic initiation factor 2 alpha (p-eIF2α) positive neurons and transcription factor YY1 in spinal cord sections from hexb^−/− mice that were treated or untreated with 4-PBA for (FIG. 15). […] Furthermore, the degree of apoptotic events occurring during disease pathogenesis with and without 4-PBA treatment was evaluated (FIG. 16). […]

For assay [5], the system named is hexb^−/− mice. The assay can be described thus: Survival of Sandhoff (hexb−/−) mice given 4-PBA in drinking water, Mantel-Cox analysis. Here is the method:
Mouse work was conducted under the animal utilization protocol (AUP) in accordance with the Ontario Animals for Research Act specifications and the Animal Research Ethics Board (AREB) guidelines. The Sandhoff model mice (hexb^−/− on a C57BL/6 background) were generously donated by Dr. R. Gravel (University of Calgary, Canada) and have been previously characterized.
as §3, §4

The test system of assay [6] is hexb^−/− mice. Description: Wire hang test in hexb−/− mice. To be noted: hexb−/− mice treated with 4-PBA vs untreated. The procedure:
as §3, §4

The subject of assay [7] is phosphorylated eukaryotic initiation factor 2 alpha (p-eIF2α). The assay can be described thus: Immunofluorescence of p-eIF2α and YY1 in spinal cord of hexb−/− mice.
From the text: as §1, §5, §6

A further assay relates to muscle fibers. The assay can be described thus: Cross-sectional area of muscle fibers from muscles surrounding the spinal cord. As to conditions: 4-PBA treated hexb−/− mice, 80 d.
From the text: as §1
Neuromuscular deficits are a highly prevalent consequence of Sandhoff disease. Therefore, cell body sectional area of the anterior horn neurons and the cross-sectional area of muscle fibers from the muscles surrounding the spinal cord of 80 d hexb^+/+ and hexb^−/− mice were evaluated (FIG. 19). Within hexb^+/+ mice, muscle fibres have an average area of ˜1000 um^2 while in contrast hexb^−/− mice show a 44% reduction in area with an average of −570 um^2. Such a drastic reduction early in disease pathology indicates mass muscle atrophy and neuronal loss has already occurred.

SMILES strings stand for the structures. Where “and” joins values, the source holds several entries; their conditions need not be identical. Equal entries are not always repeated. Entries after “also recorded” stand apart in the source; their conditions may differ.

As for `O=C(O)CCCc1ccccc1` [4-PBA, 4-phenylbutyric acid], in assay [1], the C-boutons result is “more prevalent around AHNs motor neurons and throughout the anterior horn”; the “ChAT staining / ChAT-positive motor neurons in anterior horn” value is on record as “ChAT staining was normalized; also recorded: intense cytosolic ChAT staining within viable AHNs; also recorded: ChAT-positive motor neurons were maintained in anterior horn”; the “GFAP staining in anterior horn” value is reported as “intense GFAP staining”. Also, the body mass entry in assay [2] was “restored hexb^−/− mice weights to wildtype levels”. Further, the ATF6 expression result with ATF6 is “upregulation of ATF6”. The “righting reflex / righting response time” value with hexb^−/− mice [3] (hexb−/− mice treated with 4-PBA vs untreated) was “significantly faster righting response; also recorded: significantly faster righting reflex”. Further, in the assay with hexb^−/− mice [3] (treated vs untreated hexb−/− mice (untreated impaired by 17 weeks of age)), the “delay in righting response time impairment” value is listed as 2 week. For the same compound, the “Calretinin-positive interneurons within the anterior horn region” value in [4] was “very little Calretinin-positive interneurons”. Besides, the “number of cCas7 positive neurons in spinal cord” value with cleaved caspase 7 is recorded as “significant reduction in the number of cCas7 positive neurons; also recorded: suppressed c-Cas7”. Further, the “survival / life span (in words)” value in the assay on hexb^−/− mice [5] (hexb−/− mice with 4-PBA vs without, Mantel-Cox P<0.001) is “beneficial impact on lifespan; also recorded: significant improvement in motor neuromuscular function and life span; also recorded: lived significantly longer”. Moreover, the median survival in the assay on hexb^−/− mice [5] (hexb−/− mice, 4-PBA 4 mg/ml (0.4% w/v) in drinking water from 40 d of age, untreated 127 days) was 143 days. In addition, the “increase of median survival over untreated hexb−/− mice” value with hexb^−/− mice [5] (hexb−/− mice, 4-PBA 4 mg/ml in drinking water from 40 d of age) was 16 days. For the same compound, the wire hang time entry with hexb^−/− mice [6] is listed as “significant increase in wire hang time; also recorded: longer wire hang”. Further, the “nuclear localization of p-eIF2α” value in [7] (hexb−/− mice after 4-PBA treatment vs untreated) is listed as “increase in the nuclear localization”. Besides, in [7] (hexb−/− mice treated with 4-PBA from 40 d, perfused at 80 d, vs untreated), the “number of cytosolic p-eIF2α-positive neurons in spinal cord” value is “significant reduction”. In addition, the “muscle fiber cross-sectional area vs hexb+/+ (in words)” value in the assay with muscle fibers is on record as “no significant difference; also recorded: maintained normal cross section area of muscle fibers”. Besides, in the assay with muscle fibers (hexb+/+ ~1000, untreated hexb−/− ~570), the “muscle fiber cross-sectional area (average)” value was 900 um^2 and 850 um^2.
